Results published in patent US11197904B2, “Pharmaceutical compositions for preventions and managements of dementia, infectious diseases, cancers, periodontitis, dental caries, diabetes, obesity, osteoporosis and chronic pain and methods thereof” (Chung Shan Medical University, priority 2018, dated 2021).
Values after ≈ are worked out from the molar mass of the structure shown. Where two headings read alike, the source gives them in different places. Marks after values point to notes of the source that are not given here.

How the values were obtained:
[1] = tested on: Porphyromonas gingivalis (P.g.); assay: microbe, parasite or virus in culture; details: read-out: IC50, 50% inhibition on bacterial proliferation, P. g.
[2] = tested on: Streptococcus mutans (S.m., UA159); assay: microbe, parasite or virus in culture; details: read-out: IC50, 50% inhibition on bacterial proliferation, UA159
[3] = tested on: Pseudomonas aeruginosa (P.a.); assay: microbe, parasite or virus in culture; details: read-out: IC50, 50% inhibition on bacterial proliferation, P. a.
[4] = tested on: Staphylococcus aureus (S.a); assay: microbe, parasite or virus in culture; details: read-out: IC50, 50% inhibition on bacterial proliferation, S. a.
[5] = tested on: Porphyromonas gingivalis (P.g.); details: for IC50, 50% inhibition on bacterial proliferation, P. g.: single agent
[6] = tested on: Streptococcus mutans (S.m., UA159); details: for IC50, 50% inhibition on bacterial proliferation, UA159: single agent
[7] = tested on: Pseudomonas aeruginosa (P.a.); details: for IC50, 50% inhibition on bacterial proliferation, P. a.: single agent; for IC50: read-out: IC50, P. a., metals alone
[8] = tested on: Staphylococcus aureus (S.a); details: for IC50, 50% inhibition on bacterial proliferation, S. a.: single agent; for IC50: read-out: IC50, S. a., metals alone
[9] = tested on: Lactobacillus reuteri (L.r.); assay: Proliferation of the probiotic Lactobacillus reuteri (OD600); assay type: cell-based
[10] = 3 to 10 times higher than the listed IC50, Table 1
[11] = read-out: IC50, P. g., metals alone
[12] = read-out: IC50, UA159, metals alone

Row | Compound | IC50 [1] [µg/mL] | IC50 [2] [µg/mL] | IC50 [3] [µg/mL] | IC50 [4] [µg/mL] | IC50, 50% inhibition on bacterial proliferation, P. g. [5] [µg/mL] | IC50, 50% inhibition on bacterial proliferation, UA159 [6] [µg/mL] | IC50, 50% inhibition on bacterial proliferation, P. a. [7] [µg/mL] | IC50, 50% inhibition on bacterial proliferation, S. a. [8] [µg/mL] | further results
1 | CC(Cc1ccc(O)c(O)c1)C(C)Cc1ccc(O)c(O)c1 (centres unmarked) [Nordihydro-guaiaretic acid] | < 30 | 50 (≈ 165 µM) | > 300 | 66 (≈ 218 µM) |  |  |  |  | 
2 | C[C@@H]1[C@H](O)[C@@H](C)/C=C/C=C/CC/C=C/C=C/C=C/C=C/C(O[C@H]2O[C@H](C)[C@@H](O)[C@H](N)[C@@H]2O)CC2O[C@](O)(CC(O)C(O)CCC(O)CC(O)CC(O)CC(=O)O[C@H]1C)CC(O)C2C(=O)O (some centres unmarked) [Nystatin] |  |  |  |  | 228 (≈ 246 µM) | >300 | >300 | >300 | 
3 | N.N.[Cl][Pt][Cl] [Pt] |  |  |  |  |  |  |  |  | IC50 ([5]; read-out: IC50 of single drug, Table 14, P. g., drug alone): 69 µM; IC50 ([6]; read-out: IC50 of single drug, Table 14, UA159, drug alone): > 100 µM
4 | O=c1c(O)c(-c2ccc(O)c(O)c2)oc2cc(O)cc(O)c12 [Quercetin] | > 100 | 46 (≈ 152 µM) | > 100 | > 100 |  |  |  |  | 
5 | C=C[C@H]1C[N@@]2CC[C@H]1C[C@H]2[C@H](O)c1ccnc2ccc(OC)cc12 [Quinine] | 43 (≈ 133 µM) | > 100 | > 100 | > 100 |  |  |  |  | 
6 | CO[C@H]1/C=C/O[C@@]2(C)Oc3c(C)c(O)c4c(O)c(c(/C=N/N5CCN(C)CC5)c(O)c4c3C2=O)NC(=O)/C(C)=C\C=C\[C@H](C)[C@H](O)[C@@H](C)[C@@H](O)[C@@H](C)[C@H](OC(C)=O)[C@@H]1C [Rifampin] | 0.45 (≈ 0.547 µM) | 0.013 (≈ 0.0158 µM) | 26 (≈ 31.6 µM) | 0.013 (≈ 0.0158 µM) |  |  |  |  | 
7 | N.N.N.N.N.N.N.N.N.N.N.N.N.N.[Cl-].[Cl-].[Cl-].[Cl-].[Cl-].[Cl-].[O-2].[O-2].[Ru+3].[Ru+3].[Ru+4] [Ruthenium red] |  |  |  |  |  |  |  |  | Inhibition on proliferation of Lactobacillus reuteri [9, 10]: RuR*,; IC50 [5, 11]: 74 µM; IC50 [6, 12]: 644 µM; IC50 [7]: 32 µM; IC50 [8]: > 116 µM
8 | [Cl-].[Cl-].[Sr+2] [SrCl2] |  |  |  |  |  |  |  |  | Inhibition on proliferation of Lactobacillus reuteri [9, 10]: SrCl2*; IC50 [5, 11]: > 3000 µM; IC50 [6, 12]: > 3000 µM; IC50 [7]: 4190 µM; IC50 [8]: 3590 µM
9 | [H]/N=C(/N)N[C@H]1[C@H](O)[C@@H](O)[C@H](O[C@@H]2O[C@@H](C)[C@](O)(C=O)[C@H]2O[C@@H]2O[C@@H](CO)[C@H](O)[C@@H](O)[C@@H]2NC)[C@@H](N/C(N)=N\[H])[C@@H]1O [Streptomycin] | 9 (≈ 15.5 µM) | 21 (≈ 36.1 µM) | 5 (≈ 8.6 µM) | 0.2 (≈ 0.344 µM) |  |  |  |  | 
10 | Cc1nc(C)c(C)nc1C [Tetramethyl-pyrazine] | 37 (≈ 272 µM) | > 300 | > 300 | > 300 |  |  |  |  | 
11 | CSc1ccc2c(c1)N(CCC1CCCCN1C)c1ccccc1S2 (centres unmarked) [Thioridazine] |  |  |  |  |  |  |  |  | Inhibition on proliferation of Lactobacillus reuteri ([9]; 3 to 10 times higher IC50, Table 2): TRZ, Thioridazine*
12 | NC[C@H]1O[C@H](O[C@H]2[C@H](O)[C@@H](O[C@H]3O[C@H](CO)[C@@H](O)[C@H](N)[C@H]3O)[C@H](N)C[C@@H]2N)[C@H](N)C[C@@H]1O [Tobramycin] | 4 (≈ 8.56 µM) | < 3 | 9 (≈ 19.3 µM) | < 3 |  |  |  |  | 
13 | COc1ccc(CCN(C)CCCC(C#N)(c2ccc(OC)c(OC)c2)C(C)C)cc1OC (centres unmarked) [Verapamil] | 137 (≈ 301 µM) | > 300 | > 300 | > 300 |  |  |  |  | 
14 | O=S(=O)([O-])[O-].[Zn+2] [ZnSO4] |  |  |  |  |  |  |  |  | Inhibition on proliferation of Lactobacillus reuteri [9, 10]: ZnSO4*; IC50 [5, 11]: 1060 µM; IC50 [6, 12]: 961 µM; IC50 [7]: 1160 µM; IC50 [8]: 939 µM
15 | Cardiotoxin |  |  |  |  | 11 | >10 | >10 | >10 | 
16 | Lysozyme |  |  |  |  | 21 | >100 | >100 | >100 | 
17 | Phospholipase A2 |  |  |  |  | >10 | >10 | >10 | >10 | 
18 | polyarginine |  |  |  |  | 25 | >100 | >100 | >100 | 
19 | protamine |  |  |  |  | 31 | >100 | >100 | >100 | 
